Assay results: patent publication US9145392B2, “Imidazole amines as modulators of kinase activity” (Merck Patent GmbH, priority 2011, dated 2015)
pIC50: −log10 of the molar value.

Key:
His-AKT (Full Length) = His-AKT (Full Length) (Homo sapiens (Human), UniProt P31749); assay: AKT enzyme assay; format: biochemical; details: read-out: IC50 AKT
P70S6K (T412E mutant) = P70S6K (T412E mutant) (Homo sapiens (Human), UniProt P23443, T412E); assay: P70S6K enzyme assay; format: biochemical; details: read-out: IC50 p70S6K
Sequence of P70S6K (T412E mutant) (P23443 whole entry T412E): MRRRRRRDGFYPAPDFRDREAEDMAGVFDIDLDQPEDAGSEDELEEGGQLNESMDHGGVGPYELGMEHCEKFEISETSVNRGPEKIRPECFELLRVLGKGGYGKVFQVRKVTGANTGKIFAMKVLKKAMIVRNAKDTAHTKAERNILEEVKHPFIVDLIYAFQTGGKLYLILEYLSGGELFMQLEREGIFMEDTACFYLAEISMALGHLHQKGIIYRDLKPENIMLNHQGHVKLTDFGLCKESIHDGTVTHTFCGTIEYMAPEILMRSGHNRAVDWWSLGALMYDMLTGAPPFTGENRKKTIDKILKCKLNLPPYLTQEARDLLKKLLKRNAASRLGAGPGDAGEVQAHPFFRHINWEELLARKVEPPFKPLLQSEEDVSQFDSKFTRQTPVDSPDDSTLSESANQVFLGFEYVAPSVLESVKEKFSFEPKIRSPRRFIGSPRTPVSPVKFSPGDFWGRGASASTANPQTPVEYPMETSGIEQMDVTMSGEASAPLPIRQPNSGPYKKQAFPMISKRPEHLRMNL
Procedure, shortened: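 Read-out is the substrate/phosphopeptide ratio from mobility-shift electrophoresis on a LabChip 3000.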

Sequence of His-AKT (Full Length) (P31749 whole entry): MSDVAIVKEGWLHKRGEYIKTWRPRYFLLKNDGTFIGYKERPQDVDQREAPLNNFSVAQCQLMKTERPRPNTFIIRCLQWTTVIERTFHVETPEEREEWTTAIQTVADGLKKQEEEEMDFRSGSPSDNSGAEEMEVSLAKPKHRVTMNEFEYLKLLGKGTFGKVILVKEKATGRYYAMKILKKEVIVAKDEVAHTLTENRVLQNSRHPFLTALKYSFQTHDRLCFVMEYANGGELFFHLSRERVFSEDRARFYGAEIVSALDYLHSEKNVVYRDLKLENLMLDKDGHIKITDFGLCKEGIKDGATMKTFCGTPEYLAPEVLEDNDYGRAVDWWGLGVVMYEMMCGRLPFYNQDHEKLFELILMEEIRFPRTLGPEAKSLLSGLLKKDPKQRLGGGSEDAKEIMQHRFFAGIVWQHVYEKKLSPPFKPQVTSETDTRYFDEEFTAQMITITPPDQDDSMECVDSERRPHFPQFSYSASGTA

Row | Compound | pIC50 (His-AKT (Full Length)) | pIC50 (P70S6K (T412E mutant))
1 | Cc1cc(-c2cn(CCN(C)C(C)C)c(C3CCN(c4ncnc(N)c4C(N)=O)CC3)n2)ccc1F [Compound 385, 4-Amino-6-(4-{4-(4-fluoro-3-methyl-phenyl)-1-[2-(isopropyl-methyl-amino)-ethyl]-1H-imidazol-2-yl}-piperidin-1-yl)-pyrimidine-5-carboxylic acid amide] | 7.38 | 8.21
2 | Cc1cc(-c2cn(CCNC3CCCC3)c(C3CCN(c4ncnc(N)c4C#N)CC3)n2)ccc1F [Compound 389, 4-Amino-6-{4-[1-(2-cyclopentylamino-ethyl)-4-(4-fluoro-3-methyl-phenyl)-1H-imidazol-2-yl]-piperidin-1-yl}-pyrimidine-5-carbonitrile] | 9.15 | 9.05
3 | Cc1cc(-c2cn(CCNCC(C)C)c(C3CCN(c4ncnc(N)c4C#N)CC3)n2)ccc1F [Compound 390, 4-Amino-6-{4-[4-(4-fluoro-3-methyl-phenyl)-1-(2-isobutylamino-ethyl)-1H-imidazol-2-yl]-piperidin-1-yl}-pyrimidine-5-carbonitrile] | 8.85 | 8.72
4 | Cc1cc(-c2cn(CCNC3CCCC3)c(C3CCN(c4ncnc(N)c4C(N)=O)CC3)n2)ccc1F [Compound 391, 4-Amino-6-{4-[1-(2-cyclopentylamino-ethyl)-4-(4-fluoro-3-methyl-phenyl)-1H-imidazol-2-yl]-piperidin-1-yl}-pyrimidine-5-carboxylic acid amide] | 8.25 | 8.40
5 | Cc1cc(-c2cn(CCNCC(C)C)c(C3CCN(c4ncnc(N)c4C(N)=O)CC3)n2)ccc1F [Compound 392, 4-Amino-6-{4-[4-(4-fluoro-3-methyl-phenyl)-1-(2-isobutylamino-ethyl)-1H-imidazol-2-yl]-piperidin-1-yl}-pyrimidine-5-carboxylic acid amide] | 7.89 | 8.26
6 | CNCCn1cc(-c2ccc(F)c(C)c2)nc1C1CCN(c2ncnc(N)c2C#N)CC1 [Compound 394, 4-Amino-6-{4-[4-(4-fluoro-3-methyl-phenyl)-1-(2-methylamino-ethyl)-1H-imidazol-2-yl]-piperidin-1-yl}-pyrimidine-5-carbonitrile] | 8.77 | 9.05
7 | CCOc1c(N)ncnc1N1CCC(c2nc(-c3ccc(F)c(C)c3)cn2CCO)CC1 [Compound 396, 2-[2-[1-(6-Amino-5-ethoxy-pyrimidin-4-yl)-piperidin-4-yl]-4-(4-fluoro-3-methyl-phenyl)-imidazol-1-yl]-ethanol] | 6.47 | 8.46
8 | CCOc1c(N)ncnc1N1CCC(c2nc(-c3ccc(F)c(C(F)(F)F)c3)cn2CCNC(C)C)CC1 [Compound 398, 5-Ethoxy-6-{4-[4-(4-fluoro-3-trifluoromethyl-phenyl)-1-(2-isopropylamino-ethyl)-1H-imidazol-2-yl]-piperidin-1-yl}-pyrimidin-4-ylamine] | 8.82 | 8.68
9 | Cc1cc(-c2cn(CC3CN(CO)C3)c(C3CCN(c4ncnc(N)c4C(C)C)CC3)n2)ccc1F [Compound 399, {3-[2-[1-(6-Amino-5-isopropyl-pyrimidin-4-yl)-piperidin-4-yl]-4-(4-fluoro-3-methyl-phenyl)-imidazol-1-ylmethyl]-azetidin-1-yl}-methanol] | 7.25 | 8.60
10 | CCc1c(N)ncnc1N1CCC(c2nc(-c3ccc(F)c(C)c3)cn2CC2CN(C)C2)CC1 [Compound 400, 5-Ethyl-6-{4-[4-(4-fluoro-3-methyl-phenyl)-1-(1-methyl-azetidin-3-ylmethyl)-1H-imidazol-2-yl]-piperidin-1-yl}-pyrimidin-4-ylamine] | 9.52 | 10.22

Results, then the molecule that gave them:

Row | pIC50 (His-AKT (Full Length)) | pIC50 (P70S6K (T412E mutant)) | Compound
11 | 7.82 | 8.62 | Cc1cc(-c2cn(CCNC(C)C)c(C3CCN(c4ncnc(N)c4C(N)=O)CC3)n2)ccc1F [Compound 386, 4-Amino-6-{4-[4-(4-fluoro-3-methyl-phenyl)-1-(2-isopropylamino-ethyl)-1H-imidazol-2-yl]-piperidin-1-yl}-pyrimidine-5-carboxylic acid amide]
12 | 8.08 | 8.85 | NC(=O)c1c(N)ncnc1N1CCC(c2nc(-c3ccc(F)c(C(F)(F)F)c3)cn2CCNC2CCCC2)CC1 [Compound 387, 4-Amino-6-{4-[1-(2-cyclopentylamino-ethyl)-4-(4-fluoro-3-trifluoromethyl-phenyl)-1H-imidazol-2-yl]-piperidin-1-yl}-pyrimidine-5-carboxylic acid amide]
13 | 7.89 | 8.70 | CCC(C)(C)NCCn1cc(-c2ccc(F)c(C(F)(F)F)c2)nc1C1CCN(c2ncnc(N)c2C(N)=O)CC1 [Compound 388, 4-Amino-6-{4-[1-[2-(1,1-dimethyl-propylamino)-ethyl]-4-(4-fluoro-3-trifluoromethyl-phenyl)-1H-imidazol-2-yl]-piperidin-1-yl}-pyrimidine-5-carboxylic acid amide]
14 | 7.33 | 8.55 | Cc1cc(-c2cn(CCO)c(C3CCN(c4ncnc(N)c4C(N)=O)CC3)n2)ccc1F [Compound 393, 4-Amino-6-{4-[4-(4-fluoro-3-methyl-phenyl)-1-(2-hydroxy-ethyl)-1H-imidazol-2-yl]-piperidin-1-yl}-pyrimidine-5-carboxylic acid amide]
15 | 6.74 | 8.80 | NC(=O)c1c(N)ncnc1N1CCC(c2nc(-c3ccc(F)c(C(F)(F)F)c3)cn2CCO)CC1 [Compound 395, 4-Amino-6-{4-[4-(4-fluoro-3-trifluoromethyl-phenyl)-1-(2-hydroxy-ethyl)-1H-imidazol-2-yl]-piperidin-1-yl}-pyrimidine-5-carboxylic acid amide]
16 | 7.80 | 8.60 | CNCCn1cc(-c2ccc(F)c(C)c2)nc1C1CCN(c2ncnc(N)c2C(N)=O)CC1 [Compound 397, 4-Amino-6-{4-[4-(4-fluoro-3-methyl-phenyl)-1-(2-methylamino-ethyl)-1H-imidazol-2-yl]-piperidin-1-yl}-pyrimidine-5-carboxylic acid amide]
